This passage reports IC50 results from patent EP0539170A1, “Benzodiazepine derivatives and their use as antagonists of cholecystokinin and/or gastrin receptors” (priority 1991, dated 1993).

One may read the IC50 as the concentration that inhibits the measured activity by half. The low end stands for inhibition by little substance, the high end for a need for much substance.

The experiment addresses T1, CCK Receptor (Pancreas) (Rattus norvegicus, UniProt P30551).
T1 construct: The whole pancreas was dissected free of fat tissue and was homogenized; from tissue; host or cells: rat pancreas membrane homogenate
T1 sequence (P30551 1-444): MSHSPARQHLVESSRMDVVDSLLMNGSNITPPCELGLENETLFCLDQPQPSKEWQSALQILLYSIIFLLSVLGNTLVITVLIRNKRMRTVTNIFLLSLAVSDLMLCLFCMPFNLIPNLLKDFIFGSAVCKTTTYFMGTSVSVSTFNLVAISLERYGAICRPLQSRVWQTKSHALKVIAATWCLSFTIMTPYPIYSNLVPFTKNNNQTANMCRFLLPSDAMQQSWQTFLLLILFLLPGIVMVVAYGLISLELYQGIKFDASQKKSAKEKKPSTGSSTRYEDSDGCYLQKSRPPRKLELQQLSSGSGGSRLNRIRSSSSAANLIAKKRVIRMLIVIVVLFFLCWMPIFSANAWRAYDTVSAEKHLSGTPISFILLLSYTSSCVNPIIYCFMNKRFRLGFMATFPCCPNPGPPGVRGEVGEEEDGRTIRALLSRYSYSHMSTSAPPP
The experiment can be described thus: CCK Receptor Binding (Pancreas), inhibition of specific 125I-CCK-8 binding. Further details: species or system Sprague-Dawley rats. As to conditions: rat whole pancreas membranes; 50 pM 125I-CCK-8; 25°C for 2 hours. Here is the method: CCK-8 sulphated was radiolabelled with ¹²⁵I-Bolton Hunter reagent (2000 Ci/mmole). Receptor binding was performed according to Chang and Lotti (Proc. Natl. Acad. Sci. 83, 4923-4926, 1986) with minor modifications.
Male Sprague-Dawley rats (150-200g) were sacrificed by decapitation. The whole pancreas was dissected free of fat tissue and was homogenized in 25 volumes of ice-cold 10 mM N-2-hydroxyethyl-piperazine-N′-2-ethane sulphonic acid (HEPES) buffer with 0.1% soya bean trypsin inhibitor (pH 7.4 at 25°C) with a Kinematica Polytron. The homogenates were centrifuged at 47,800 g for 10 min. Pellets were resuspended in 10 volumes of binding assay buffer (20mM (HEPES)), 1mM ethylene glycol-bis-(β-aminoethylether-N,N′-tetraacetic acid) (EGTA), 5mM MgCl₂, 150 mM NaCl, bacitracin 0.25 mg/ml, soya bean trypsin inhibitor 0.1 mg/ml, and bovine serum albumin 2 mg/ml pH 6.5 at 25°C) using a Teflon (trademark) homogenizer, 15 strokes at 500 rpm. The homogenate was further diluted in binding assay buffer to give a final concentration of 0.5 mg original wet weight/1 ml buffer. […] All assays were run in duplicate. The reaction mixtures were incubated at 25°C for 2 hours and the reaction terminated by rapid filtration (Brandell 24 well cell harvester) over Whatman GF/C filters, washing 3 x 4 mls with ice-cold 100 Mm NaCl. The radioactivity on the filters was counted with a LKB gamma counter.
Drug displacement studies were performed with at least 10 concentrations of compounds of Formula I and the IC₅₀ values were determined by regression analysis IC₅₀ refers to the concentration of the compound required to inhibit 50% of specific binding of ¹²⁵I-CCK-8.
In turn, `Cc1cccc(NC(=O)NC2N=C(N3CCCC3)c3ccccc3N(C)C2=O)c1` (racemic) [Example 2, N-[3(R,S)-2.3-Dihydro-1-methyl-2-oxo-5-(pyrrolidin-1-yl)-1H-1,4-benzodiazepin-3-yl] N′-[3-methylphenyl] urea] yielded an IC50 of 612 nM.

`Cc1cccc(NC(=O)NC2N=C(N3CCOCC3)c3ccccc3N(C)C2=O)c1` (racemic) [Example 3, N-[3(R,S)-2,3-Dihydro-1-methyl-5-(morpholin-4-yl)-2-oxo-1H-1,4-benzodiazepin-3-yl] N′-[3-methylphenyl] urea]: the IC50 worked out at 505 nM.

On to `Cc1cccc(NC(=O)NC2N=C(N3CCN(C)CC3)c3ccccc3N(C)C2=O)c1` (racemic) [Example 4, N-[3(R,S)-2,3-Dihydro-1-methyl-5-(4-methylpiperazin-1-yl-2-oxo-1H-1,4-benzodiazepin-3-yl] N′-[3-methylphenyl]urea], for which the IC50 was 4120 nM.

Consider `CCc1cccc(NC(=O)NC2N=C(N3CCN(C)CC3)c3ccccc3N(C)C2=O)c1` (racemic) [Example 5, N-[3(R,S)-2,3-Dihydro-1-methyl-5-(4-methylpiperazin-1-yl)-2-oxo-1H-1,4-benzodiazepin-3-yl] N′-[3-ethylphenyl] urea], for which the IC50 turned out to be 4320 nM.

For the compound `Cc1ccc(NC(=O)NC2N=C(N3CCN(C)CC3)c3ccccc3N(C)C2=O)cc1` (racemic) [Example 6, N-[3(R,S)-2,3-Dihydro-1-methyl-5-(4-methylpiperazin-1-yl-2-oxo-1H-1,4-benzodiazepin-3-yl] N′-[4-methylphenyl]urea], the 50% inhibitory concentration (IC50) is over 3000 nM. Take `CN1CCN(C2=NC(NC(=O)Nc3ccc(Cl)cc3)C(=O)N(C)c3ccccc32)CC1` (racemic) [Example 7, N-[3(R,S)-2,3-Dihydro-1-methyl-5-(4-methylpiperazin-1-yl-2-oxo-1H-1,4-benzodiazepin-3-yl] N′-[4-chlorophenyl]urea]: the IC50 was over 3000 nM. To `Cc1cccc(NC(=O)NC2N=C(N3CCNCC3)c3ccccc3N(C)C2=O)c1` (racemic) [Example 9, N-[3(R,S)-2,3-Dihydro-1-methyl-2-oxo-5-(piperazin-1-yl)-1H-1,4-benzodiazepin-3-yl]-N′-[3-methylphenyl] urea] belongs over 3000 nM; to `COc1cccc(NC(=O)NC2N=C(N3CCN(C)CC3)c3ccccc3N(C)C2=O)c1` (racemic) [Example 10, N-[3(R,S)-2,3-Dihydro-1-methyl-5-(4-methylpiperazin-1-yl)-2-oxo-1H-1,4-benzodiazepin-3-yl]-N#MIN#-[3-methoxyphenyl] urea], 900 nM; to `CN1CCN(C2=NC(NC(=O)Nc3cccc(O)c3)C(=O)N(C)c3ccccc32)CC1` (racemic) [Example 11, N-[3(R,S)-2,3-Dihydro-1-methyl-5-(4-methylpiperazin-1-yl)-2-oxo-1H-1,4-benzodiazepin-3-yl]-N#MIN#-[3-hydroxyphenyl] urea], 2300 nM.

Compound `CCCN1C(=O)C(NC(=O)Nc2cccc(OC)c2)N=C(N2CCN(C)CC2)c2ccccc21` (racemic) [Example 12, N-[3(R,S)-2,3-Dihydro-5-(4-methylpiperazin-1-yl)-2-oxo-1-propyl-1H-1,4-benzodiazepin-3-yl]-N#MIN#-[3-methoxyphenyl] urea] gave an IC50 of over 3000 nM. The compound `CN1CCN(C2=NC(NC(=O)Nc3cccc(-c4nnn(C)n4)c3)C(=O)N(C)c3ccccc32)CC1` (racemic) [Example 13, N-[3(R,S)-2,3-Dihydro-1-methyl-2-oxo-5-(4-methylpiperazin-1-yl)-1H-1,4-benzodiazepin-3-yl]-N′-[3-(2-methyltetrazol-5-yl)phenyl] urea] registered a concentration for half-maximal inhibition (IC50) of over 3000 nM.

`CN1CCN(C2=NC(NC(=O)Nc3cccc(-c4nnnn4C)c3)C(=O)N(C)c3ccccc32)CC1` (racemic) [Example 14, N-[3(R,S)-2,3-Dihydro-1-methyl-2-oxo-5-(4-methylpiperazin-1-yl)-1H-1,4-benzodiazepin-3-yl)-N′-[3-(1-methyltetrazol-5-yl)phenyl] urea] had an IC50 of over 3000 nM. The figure for `CN1CCN(C2=NC(NC(=O)Nc3cccc(C(=O)N(C)C)c3)C(=O)N(C)c3ccccc32)CC1` (racemic) [Example 15, N-[3(R,S)-2,3-Dihydro-1-methyl-2-oxo-5-(4-methylpiperazin-1-yl)-1H-1,4-benzodiazepin-3-yl]-N′-[3-(N,N-dimethylcarboxamido)phenyl] urea] is over 3000 nM; for `Cc1cccc(NC(=O)NC2N=C(N3CCCNCC3)c3ccccc3N(C)C2=O)c1` (racemic) [Example 16, N-[3(R,S)-2,3-Dihydro-5-(homopiperazin-1-yl)-1-methyl-2-oxo-1H-1,4-benzodiazepin-3-yl]-N′-[3-methylphenyl] urea] it is over 3000 nM. To `Cc1cccc(NC(=O)NC2N=C(N3CCCN(C)CC3)c3ccccc3N(C)C2=O)c1` (racemic) [Example 17, N-[3(R,S)-2,3-Dihydro-1-methyl-5-(4-methylhomopiperazin-1-yl)-2-oxo-1H-1,4-benzodiazepin-3-yl]-N′-[3-methylphenyl] urea] belongs 2800 nM; to `CCNC(=O)c1cccc(NC(=O)NC2N=C(N3CCN(C)CC3)c3ccccc3N(C)C2=O)c1` (racemic) [Example 18, N-[3(R,S)-2,3-Dihydro-1-methyl-2-oxo-5-(4-methylpiperazin-1-yl)-1H-1,4-benzodiazepin-3-yl]-N′-[3-(N-ethylcarboxamido)phenyl] urea], over 3000 nM. The figure for `CCc1cccc(NC(=O)NC2N=C(N3CCCCC3)c3ccccc3N(C)C2=O)c1` (racemic) [Example 19, N-[3(R,S)-2,3-Dihydro-1-methyl-2-oxo-5-(piperidin-1-yl)-1H-1,4-benzodiazepin-3-yl]-N′-[3-ethylphenyl] urea] is 25 nM; for `Cc1cccc(NC(=O)NC2N=C(N3CCCCCC3)c3ccccc3N(C)C2=O)c1` (racemic) [Example 20, N-[3(R,S)-2,3-Dihydro-5-(homopiperidin-1-yl)-1-methyl-2-oxo-1H-1,4-benzodiazepin-3-yl]-N′-[3-methylphenyl] urea] it is 10 nM; for `CCCN1C(=O)C(NC(=O)Nc2cccc(CC)c2)N=C(N2CCN(C)CC2)c2ccccc21` (racemic) [Example 21, N-[3(R,S)-2,3-Dihydro-5-(4-methylpiperazin-1-yl)-2-oxo-1-propyl-1H-1,4-benzodiazepin-3-yl]-N#MIN#-[3-ethylphenyl] urea] it is 2400 nM. In turn, `Cc1cccc(NC(=O)NC2N=C(N3CCN(C)CC3)c3ccccc3N(CC(C)C)C2=O)c1` (racemic) [Example 22, N-[3(R,S)-2,3-Dihydro-5-(4-methylpiperazin-1-yl)-1-(2-methylpropyl)-2-oxo-1H-1,4-benzodiazepin-3-yl]-N′-[3-methylphenyl] urea] registered an IC50 of 1800 nM.

`CCc1cccc(NC(=O)NC2N=C(N3CCN(C)CC3)c3ccccc3N(CC(C)C)C2=O)c1` (racemic) [Example 23, N-[3(R,S)-2,3-Dihydro-5-(4-methylpiperazin-1-yl)-1-(2-methylpropyl)-2-oxo-1H-1,4-benzodiazepin-3-yl]-N′-[3-ethylphenyl] urea] returned an IC50 of 2400 nM. To `CN1CCN(C2=NC(NC(=O)Nc3cccc(C(F)(F)F)c3)C(=O)N(C)c3ccccc32)CC1` (racemic) [Example 30, N-[3(R,S)-2,3-Dihydro-1-methyl-2-oxo-5-(4-methylpiperazin-1-yl)-1H-1,4-benzodiazepin-3-yl]-N′-[3-trifluoromethylphenyl] urea] belongs 2700 nM.
